Literature values in paper PMC7395068, “The evolution of strategies to minimise the risk of human drug-induced liver injury (DILI) in drug discovery and development” (Archives of Toxicology, 2020).
Where two headings read alike, the source gives them in different places.

Details: cited from earlier work
[1] = binary in vivo DILI call given beside the severity category, ref Chen 2016
[2] = human DILI concern category (LTKB DILIrank), ref Chen 2016
[3] = LTKB DILIrank category, ref Chen 2016
[4] = binary human DILI assignment, ref Chen 2016

| Compound | DILI +VE (5-8), DILI -VE (-4) [1] | DILI severity category [2] | other results |
| --- | --- | --- | --- |
| CCOc1cc(CC(=O)N[C@@H](CC(C)C)c2ccccc2N2CCCCC2)ccc1C(=O)O [repaglinide] | +VE | vLess-DILI-Concern |  |
| COC(=O)[C@H]1[C@H]2C[C@@H]3c4[nH]c5cc(OC)ccc5c4CCN3C[C@H]2C[C@@H](OC(=O)c2cc(OC)c(OC)c(OC)c2)[C@@H]1OC [reserpine] | -VE | vNo-DILI-Concern |  |
| CO[C@H]1/C=C/O[C@@]2(C)Oc3c(C)c(O)c4c(c3C2=O)C2=NC3(CCN(CC(C)C)CC3)NC2=C(NC(=O)/C(C)=C\C=C\[C@H](C)[C@H](O)[C@@H](C)[C@@H](O)[C@@H](C)[C@H](OC(C)=O)[C@@H]1C)C4=O [rifabutin] | +VE | vLess-DILI-Concern |  |
| CC(N)C12CC3CC(CC(C3)C1)C2 (stereo not drawn) [rimantadine] | -VE | vNo-DILI-Concern |  |
| CCN(C)C(=O)Oc1cccc([C@H](C)N(C)C)c1 [rivastigmine] | +VE | vLess-DILI-Concern |  |
| CN(C)CCc1c[nH]c2ccc(Cn3cncn3)cc12 [rizatriptan] | -VE | vNo-DILI-Concern |  |
| C=CC[N+]1([C@H]2C[C@H]3[C@@H]4CC[C@H]5C[C@H](O)[C@@H](N6CCOCC6)C[C@]5(C)[C@H]4CC[C@]3(C)[C@H]2OC(C)=O)CCCC1 [rocuronium] |  |  | DILI +VE (5-8), DILI -VE (-4) (in vivo): -VE; DILI severity category (in vivo): vNo-DILI-Concern |
| CCCN(CCC)CCc1cccc2c1CC(=O)N2 [ropinirole] | +VE | vLess-DILI-Concern |  |
| CC(C)(C)NCC(O)c1ccc(O)c(CO)c1 (stereo not drawn) [salbutamol] | -VE | vNo-DILI-Concern |  |
| O=C(Oc1ccccc1C(=O)O)c1ccccc1O [salsalate] | +VE | vLess-DILI-Concern |  |
| C=CCC1(C(C)CCC)C(=O)NC(=O)NC1=O (stereo not drawn) [secobarbital] | -VE | Ambiguous DILI-concern |  |
| CC(C)CC(N(C)C)C1(c2ccc(Cl)cc2)CCC1 (stereo not drawn) [sibutramine] |  |  | DILI +VE (5-8), DILI -VE (-4) (in vivo): +VE; DILI severity category (in vivo): vLess-DILI-Concern |
| C[C@H](Cc1cc2c(c(C(N)=O)c1)N(CCCO)CC2)NCCOc1ccccc1OCC(F)(F)F [silodosin] | -VE | Ambiguous DILI-concern |  |
| CSCC[C@H](NC(=O)[C@H](Cc1ccc(OS(=O)(=O)O)cc1)NC(=O)[C@@H](N)CC(=O)O)C(=O)NCC(=O)N[C@@H](Cc1c[nH]c2ccccc12)C(=O)N[C@@H](CCSC)C(=O)N[C@@H](CC(=O)O)C(=O)N[C@@H](Cc1ccccc1)C(N)=O [sincalide] |  |  | DILI +VE (5-8), DILI -VE (-4) (in vivo): -VE; DILI severity category (in vivo): vNo-DILI-Concern |
| CO[C@H]1C[C@@H]2CC[C@@H](C)[C@@](O)(O2)C(=O)C(=O)N2CCCC[C@H]2C(=O)O[C@H]([C@H](C)C[C@@H]2CC[C@@H](O)[C@H](OC)C2)CC(=O)[C@H](C)/C=C(\C)[C@@H](O)[C@@H](OC)C(=O)[C@H](C)C[C@H](C)/C=C/C=C/C=C/1C [sirolimus] | +VE | vLess-DILI-Concern |  |
| N[C@@H](CC(=O)N1CCn2c(nnc2C(F)(F)F)C1)Cc1cc(F)c(F)cc1F [sitagliptin] | +VE | vLess-DILI-Concern |  |
| O=C([O-])O.[Na+] [sodium bicarbonate] |  |  | DILI +VE (5-8), DILI -VE (-4) (in vivo): -VE |
| CC(O)C(=O)[O-].[Na+] (stereo not drawn) [sodium lactate] |  |  | DILI +VE (5-8), DILI -VE (-4) (in vivo): -VE; DILI severity category (in vivo): vNo-DILI-Concern |
| O=S([O-])([O-])=S.[Na+].[Na+] [sodium thiosulfate] |  |  | DILI +VE (5-8), DILI -VE (-4) (in vivo): -VE; DILI severity category (in vivo): vNo-DILI-Concern |

| Compound | DILI +VE (5-8), DILI -VE (-4) [1] | DILI severity category [2] | other results |
| --- | --- | --- | --- |
| O=C(O)[C@@H](S)[C@@H](S)C(=O)O [succimer] | +VE | vLess-DILI-Concern |  |
| C[N+](C)(C)CCOC(=O)CCC(=O)OCC[N+](C)(C)C [succinylcholine] | -VE | vNo-DILI-Concern |  |
| CCCCCCCCNC(C)C(O)c1ccc(SC(C)C)cc1 (stereo not drawn) [sulcotidil] |  |  | DILI +VE (5-8), DILI -VE (-4) (in vivo): +VE; DILI severity category (in vivo): vMost-DILI-Concern |
| NC(=O)NS(=O)(=O)c1ccc(N)cc1 [sulfacarbamide] | +VE | vMost-DILI-Concern |  |
| Nc1ccc(S(=O)(=O)Nc2ncccn2)cc1 [sulfadiazine] | +VE | vLess-DILI-Concern |  |
| Nc1ccc(S(=O)(=O)Nc2nccs2)cc1 [sulfathiazole] | +VE | vMost-DILI-Concern |  |
| CN1CC(=O)N2[C@H](c3ccc4c(c3)OCO4)c3[nH]c4ccccc4c3C[C@@H]2C1=O [tadalafil] | -VE | Ambiguous DILI-concern |  |
| CC[C@@H](c1cccc(O)c1)[C@@H](C)CN(C)C [tapentadol] | -VE | vNo-DILI-Concern |  |
| CCCCCNC(=N)N/N=C/c1c[nH]c2ccc(OC)cc12 [tegaserod] | -VE | Ambiguous DILI-concern |  |
| COc1cc([C@@H]2c3cc4c(cc3[C@@H](O[C@@H]3O[C@@H]5CO[C@@H](c6cccs6)O[C@H]5[C@H](O)[C@H]3O)[C@H]3COC(=O)[C@H]23)OCO4)cc(OC)c1O [teniposide] | +VE | vLess-DILI-Concern |  |
| COc1cc2c(cc1OC)C1CC(=O)C(CC(C)C)CN1CC2 (stereo not drawn) [tetrabenazine] | -VE | Ambiguous DILI-concern |  |
| C[C@H](O)[C@H](O)[C@H]1CNc2nc(N)[nH]c(=O)c2N1 [tetrahydrobiopterin] | -VE | vNo-DILI-Concern |  |
| O=C1CCC(N2C(=O)c3ccccc3C2=O)C(=O)N1 (stereo not drawn) [thalidomide] | +VE | vLess-DILI-Concern |  |
| c1ccc2[nH]c(-c3cscn3)nc2c1 [thiabendazole] | +VE | vMost-DILI-Concern |  |
| S=P(N1CC1)(N1CC1)N1CC1 [thiotepa] | +VE | vLess-DILI-Concern |  |
| Cc1ccsc1C(=CCCN1CCC[C@@H](C(=O)O)C1)c1sccc1C [tiagabine] | -VE | Ambiguous DILI-concern |  |
| CN(C)c1cc(NC(=O)CNC(C)(C)C)c(O)c2c1C[C@H]1C[C@H]3[C@H](N(C)C)C(O)=C(C(N)=O)C(=O)[C@@]3(O)C(O)=C1C2=O [tigecycline] | -VE | Ambiguous DILI-concern |  |
| Cc1cc(Br)c(O)c2ncccc12 [tilbroquinol] | +VE | vMost-DILI-Concern |  |
| O=P(O)(O)C(Sc1ccc(Cl)cc1)P(=O)(O)O [tiludronate] | -VE | vNo-DILI-Concern |  |

| Compound | DILI +VE (5-8), DILI -VE (-4) [1] | DILI severity category [2] | other results |
| --- | --- | --- | --- |
| CC(C)(C)NC[C@H](O)COc1nsnc1N1CCOCC1 [timolol] | -VE | Ambiguous DILI-concern |  |
| CC(S)C(=O)NCC(=O)O (stereo not drawn) [tiopronin] | -VE | Ambiguous DILI-concern |  |
| CCCCS(=O)(=O)N[C@@H](Cc1ccc(OCCCCC2CCNCC2)cc1)C(=O)O [tirofiban] | -VE | vNo-DILI-Concern |  |
| Clc1ccc2nsnc2c1NC1=NCCN1 [tizanidine] |  |  | DILI +VE (5-8), DILI -VE (-4) (in vivo): +VE; DILI severity category (in vivo): vMost-DILI-Concern |
| COc1ccc2c(C(=S)N(C)CC(=O)O)cccc2c1C(F)(F)F [tolrestat] | +VE | vMost-DILI-Concern |  |
| Cc1ccccc1C(=O)Nc1ccc(C(=O)N2CCCC(O)c3cc(Cl)ccc32)c(C)c1 (stereo not drawn) [tolvaptan] | +VE | vMost-DILI-Concern |  |
| CC[C@@]1(O)C(=O)OCc2c1cc1n(c2=O)Cc2cc3c(CN(C)C)c(O)ccc3nc2-1 [topotecan] | -VE | vNo-DILI-Concern |  |
| CCOC(=O)[C@H](CCc1ccccc1)N[C@@H](C)C(=O)N1[C@H](C(=O)O)C[C@H]2CCCC[C@@H]21 [trandolapril] | +VE | vLess-DILI-Concern |  |
| CC(=O)Oc1ccc(C2(c3ccc(OC(C)=O)cc3)C(=O)N(C(C)=O)c3ccccc32)cc1 [triacetyldiphenolisatin] | +VE | vMost-DILI-Concern |  |
| Nc1nc(N)c2nc(-c3ccccc3)c(N)nc2n1 [triamterene] | +VE | vLess-DILI-Concern |  |
| Cc1nnc2n1-c1ccc(Cl)cc1C(c1ccccc1Cl)=NC2 [triazolam] |  |  | DILI +VE (5-8), DILI -VE (-4) (in vivo): -VE; DILI severity category (in vivo): Ambiguous DILI-concern |
| Cl.Cl.NCCNCCNCCN [trientine hydrochloride] |  |  | DILI +VE (5-8), DILI -VE (-4) (in vivo): -VE; DILI severity category (in vivo): vNo-DILI-Concern |
| COc1cc(C(=O)NCc2ccc(OCCN(C)C)cc2)cc(OC)c1OC [trimethobenzamide] | -VE | Ambiguous DILI-concern |  |
| COc1cc(NCc2ccc3nc(N)nc(N)c3c2C)cc(OC)c1OC [trimetrexate] | -VE | Ambiguous DILI-concern |  |
| CC(CN(C)C)CN1c2ccccc2CCc2ccccc21 (stereo not drawn) [trimipramine] | -VE | Ambiguous DILI-concern |  |
| NC(CO)(CO)CO [tromethamine] |  |  | DILI severity category [3]: Ambiguous DILI-concern; DILI +VE (5-8), DILI -VE (-4) [4]: -VE |
| O=C(O[C@H]1C[C@H]2CC[C@@H](C1)[N+]21CCCC1)C(O)(c1ccccc1)c1ccccc1 [trospium] |  |  | DILI severity category [3]: vNo-DILI-Concern; DILI +VE (5-8), DILI -VE (-4) [4]: -VE |
| NCCc1ccc(O)cc1 [tyramine] |  |  | DILI severity category [3]: vNo-DILI-Concern; DILI +VE (5-8), DILI -VE (-4) [4]: -VE |
